Source: the NIST ThermoML archive (doi:10.1021/je049671t)

Test: xn = mol fraction of the nth substance listed
Conditions: Liquid, Vibrating tube method

CC(C)C [2-methylpropane] + CCC
Conditions | mass density [kg/m3]
300 K, 4958.9 kPa, x2 = 0.499 | 533.34
300 K, 4994.5 kPa, x2 = 0.75 | 518.46
300 K, 5016.4 kPa, x2 = 0.25 | 547.38
300 K, 5458.6 kPa, x2 = 0.499 | 534.46
300 K, 5458.9 kPa, x2 = 0.75 | 519.57
300 K, 5511.8 kPa, x2 = 0.25 | 548.38
300 K, 5960.9 kPa, x2 = 0.75 | 520.74
300 K, 5975.7 kPa, x2 = 0.499 | 535.56
300 K, 6025.1 kPa, x2 = 0.25 | 549.47
300 K, 6473 kPa, x2 = 0.75 | 521.92
300 K, 6516 kPa, x2 = 0.25 | 550.41
300 K, 6517.3 kPa, x2 = 0.499 | 536.72
300 K, 6954.6 kPa, x2 = 0.75 | 522.99
300 K, 6957 kPa, x2 = 0.25 | 551.23
300 K, 6984.7 kPa, x2 = 0.499 | 537.69
320 K, 1020.5 kPa, x2 = 0.25 | 509.69
320 K, 1325.3 kPa, x2 = 0.75 | 475.52
320 K, 1461.2 kPa, x2 = 0.499 | 494.61
320 K, 1500 kPa, x2 = 0.25 | 511.28
320 K, 1505.3 kPa, x2 = 0.75 | 476.31
320 K, 2021.1 kPa, x2 = 0.75 | 478.51
320 K, 2023.3 kPa, x2 = 0.25 | 512.94
320 K, 2041.5 kPa, x2 = 0.499 | 496.75
320 K, 2488.7 kPa, x2 = 0.499 | 498.31
320 K, 2517.7 kPa, x2 = 0.75 | 480.54
320 K, 2522.2 kPa, x2 = 0.25 | 514.49
320 K, 3007.6 kPa, x2 = 0.25 | 515.95
320 K, 3023.9 kPa, x2 = 0.499 | 500.12
320 K, 3025.6 kPa, x2 = 0.75 | 482.53
320 K, 3506.4 kPa, x2 = 0.75 | 484.35
320 K, 3508.1 kPa, x2 = 0.25 | 517.4
320 K, 3550 kPa, x2 = 0.499 | 501.84
320 K, 3994.2 kPa, x2 = 0.75 | 486.12
320 K, 4022.9 kPa, x2 = 0.25 | 518.87
320 K, 4037.4 kPa, x2 = 0.499 | 503.38
320 K, 4507.7 kPa, x2 = 0.75 | 487.92
320 K, 4522.1 kPa, x2 = 0.25 | 520.26
320 K, 4530.4 kPa, x2 = 0.499 | 504.9
320 K, 4954.2 kPa, x2 = 0.499 | 506.17
320 K, 4968 kPa, x2 = 0.75 | 489.5
320 K, 4990.1 kPa, x2 = 0.25 | 521.53
320 K, 5517.3 kPa, x2 = 0.25 | 522.93
320 K, 5527.2 kPa, x2 = 0.75 | 491.33
320 K, 5545.8 kPa, x2 = 0.499 | 507.9
320 K, 5997.3 kPa, x2 = 0.499 | 509.24
320 K, 6001.8 kPa, x2 = 0.25 | 524.19
320 K, 6003.6 kPa, x2 = 0.75 | 492.85
320 K, 6479.8 kPa, x2 = 0.25 | 525.39
320 K, 6495 kPa, x2 = 0.75 | 494.38
320 K, 6524.9 kPa, x2 = 0.499 | 510.74
320 K, 6930.3 kPa, x2 = 0.499 | 511.85
320 K, 6964.1 kPa, x2 = 0.25 | 526.6
320 K, 7044.7 kPa, x2 = 0.75 | 496.03
340 K, 1514.2 kPa, x2 = 0.25 | 479.11
340 K, 2002.6 kPa, x2 = 0.499 | 459.37
340 K, 2028 kPa, x2 = 0.25 | 481.6
340 K, 2456 kPa, x2 = 0.499 | 461.99
340 K, 2489.8 kPa, x2 = 0.75 | 441.74
340 K, 2523.8 kPa, x2 = 0.25 | 483.92
340 K, 2981.6 kPa, x2 = 0.499 | 464.85
340 K, 3027.2 kPa, x2 = 0.25 | 486.13
340 K, 3027.4 kPa, x2 = 0.75 | 445.39
340 K, 3485.7 kPa, x2 = 0.499 | 467.47
340 K, 3510.1 kPa, x2 = 0.75 | 448.46
340 K, 3532.9 kPa, x2 = 0.25 | 488.26
340 K, 3969 kPa, x2 = 0.75 | 451.17
340 K, 4012.5 kPa, x2 = 0.499 | 470.04
340 K, 4015.7 kPa, x2 = 0.25 | 490.21
340 K, 4498.6 kPa, x2 = 0.75 | 454.09
340 K, 4503 kPa, x2 = 0.25 | 492.08
340 K, 4508.4 kPa, x2 = 0.499 | 472.34
340 K, 4963.1 kPa, x2 = 0.75 | 456.51
340 K, 4964.9 kPa, x2 = 0.25 | 493.81
340 K, 4990.6 kPa, x2 = 0.499 | 474.5
340 K, 5450.5 kPa, x2 = 0.499 | 476.5
340 K, 5511.1 kPa, x2 = 0.75 | 459.22
340 K, 5522.3 kPa, x2 = 0.25 | 495.84
340 K, 5960.4 kPa, x2 = 0.75 | 461.33
340 K, 5982 kPa, x2 = 0.499 | 478.68
340 K, 6022.3 kPa, x2 = 0.25 | 497.59
340 K, 6506.1 kPa, x2 = 0.75 | 463.79
340 K, 6513 kPa, x2 = 0.499 | 480.75
340 K, 6527.5 kPa, x2 = 0.25 | 499.31
340 K, 6963 kPa, x2 = 0.25 | 500.75
340 K, 7045.5 kPa, x2 = 0.499 | 482.76
340 K, 7081.1 kPa, x2 = 0.75 | 466.25
360 K, 2023.3 kPa, x2 = 0.25 | 441.34
360 K, 2495.4 kPa, x2 = 0.499 | 418.03
360 K, 2532.9 kPa, x2 = 0.25 | 445.56
360 K, 2996.3 kPa, x2 = 0.499 | 423.54
360 K, 3022.3 kPa, x2 = 0.25 | 449.26
360 K, 3496.3 kPa, x2 = 0.499 | 428.34
360 K, 3518.2 kPa, x2 = 0.75 | 399.53
360 K, 3519.8 kPa, x2 = 0.25 | 452.71
360 K, 3960 kPa, x2 = 0.75 | 405.21
360 K, 3971.4 kPa, x2 = 0.75 | 405.35
360 K, 3988.8 kPa, x2 = 0.499 | 432.58
360 K, 4022.3 kPa, x2 = 0.25 | 455.95
360 K, 4484.8 kPa, x2 = 0.75 | 411.08
360 K, 4488.6 kPa, x2 = 0.499 | 436.48
360 K, 4520.2 kPa, x2 = 0.25 | 458.95
360 K, 4923.7 kPa, x2 = 0.75 | 415.42
360 K, 4983.9 kPa, x2 = 0.25 | 461.58
360 K, 5000.3 kPa, x2 = 0.499 | 440.17
360 K, 5436.6 kPa, x2 = 0.499 | 443.06
360 K, 5456.3 kPa, x2 = 0.75 | 420.47
360 K, 5515.2 kPa, x2 = 0.25 | 464.45
360 K, 5932 kPa, x2 = 0.75 | 424.33
360 K, 5982.9 kPa, x2 = 0.25 | 466.86
360 K, 5992.3 kPa, x2 = 0.499 | 446.54
360 K, 6444.6 kPa, x2 = 0.25 | 469.09
360 K, 6487.4 kPa, x2 = 0.499 | 449.41
360 K, 6509.8 kPa, x2 = 0.75 | 428.41
360 K, 6932.1 kPa, x2 = 0.75 | 431.05
360 K, 6956.4 kPa, x2 = 0.25 | 471.48
360 K, 6977 kPa, x2 = 0.499 | 452.14
380 K, 2977.2 kPa, x2 = 0.25 | 394.6
380 K, 3495.5 kPa, x2 = 0.25 | 403.43
380 K, 3540.7 kPa, x2 = 0.499 | 358.66
380 K, 3969.5 kPa, x2 = 0.25 | 409.99
380 K, 4047.9 kPa, x2 = 0.499 | 373.76
380 K, 4453.9 kPa, x2 = 0.25 | 415.7
380 K, 4501.9 kPa, x2 = 0.499 | 383.09
380 K, 5016 kPa, x2 = 0.499 | 391.43
380 K, 5019.6 kPa, x2 = 0.25 | 421.52
380 K, 5488.5 kPa, x2 = 0.25 | 425.84
380 K, 5506.7 kPa, x2 = 0.499 | 398.06
380 K, 5943.1 kPa, x2 = 0.499 | 403.16
380 K, 5972.1 kPa, x2 = 0.25 | 429.89
380 K, 6422.5 kPa, x2 = 0.499 | 408.17
380 K, 6471.8 kPa, x2 = 0.25 | 433.74
380 K, 6885.8 kPa, x2 = 0.499 | 412.58
380 K, 7060.8 kPa, x2 = 0.25 | 437.93

mass density [kg/m3]
Conditions | 300 K | 320 K | 340 K | 360 K | 380 K
x2 = 0.25 | 537.31 | 509.12 | 478.17 | 440.78 | 390.71
x2 = 0.499 | 522.96 | 491.75 | 457.03 | 416.83 | 346.9
x2 = 0.75 | 507.33 | 475.51 | 436.07 | 388.35 | –
